Where two headings read alike, the source gives them in different places.
Assays:
[1] = system: PC-3 prostatic carcinoma cell line; assay: Cell viability (XTT), PC-3; type: cell-based; conditions: Homo sapiens, read-out: EC50 for cell viability
Protocol: (§1) Cell proliferation kit II (Roche Inc.) is based on colorimetric change of the yellow tetrazolium salt XTT in orange formazan dye by the respiratory chain of viable cells (Roehm, N W, et al., J Immunol Methods 142:257-265, 1991). Cells seeded at a concentration of 5000/well in 100 μl medium in a 96-well plate were treated with different drugs in the given concentration. After 24 or 48 h the cells were incubated, according to the manufacturer's protocol, with XTT labelling mixture. After 4 h the formazan dye is quantified using a scanning multiwell spectrophotometer with a 495-nm filter. The absorbance is directly correlated with the number of viable cells. The standard absorbance curve was drawn by means of untreated cells seeded at a concentration of from 1000 to 10 000 cells/well with an increasing rate of 1000 cells/well. All standards and experiments were performed in triplicates.
(§2) 12 different types of cell lines were seeded in 96-well plates (medium volume in a well was 100 μl), at a concentration of 10,000 cells/cm^2 in Minimal Essential Medium supplemented with fetal calf serum. When the cells had reached a concentration of 65,000 cells/cm^2, they were treated with different doses of podophyllotoxin and picropodophyllin for 48 h. Cell viability was then assayed (see above). […]

[2] = target: T1, insulin receptor (IR) (Homo sapiens, UniProt P06213); assay: Tyrosine phosphorylation of IR in intact FM55 melanoma cells; type: cell-based; conditions: 0.05 μM, 1 h
T1 construct: endogenous in cells; host or cells: FM55 melanoma cells
Protocol: (§3) Cells were cultured to subconfluency in 6-cm plates, and then fresh medium containing 10% FBS and the desired compounds were added for 1 h. The cells were then lyzed and subjected to immunoprecipitation using specific antibodies. Immunoprecipitates were resolved by sodium dodecyl sulphate polyacrylamide gel electrophoresis (SDS-PAGE) and transferred to nitro-cellulose membranes and incubated with anti-phosphotyrosine antibody. Antibodies to actin (in cell extract) or IGF-1R beta subunit were used as loading controls. After detection the films were scanned for quantification.
(§4) FM55 melanoma cells were cultured in the same way as described in Experiment 1. When reaching a density of 65,000 cells/cm^2 in the dishes, they were treated for 1 h with 0 (control) and 0.05 μM of picropodophyllin and podophyllotoxin, respectively. The cells were then isolated and subjected to immunoprecipitation of the IGF-1R, fibroblast growth factor receptor (FGFR), platelet-derived growth factor receptor (PDGFR), epidermal growth factor receptor (EGFR), insulin receptor (IR) and insulin substrate-1 (IRS-1) using antibodies to respective molecules. IRS-1 is a substrate of IGF-1R, and therefore its phosphorylation is dependent on phosphorylated IGF-1R. Gelelectrophoresis, Western blotting and quantification of the different signals were performed as described above.

[3] = system: platelet-derived growth factor receptor (PDGFR); assay: Tyrosine phosphorylation of PDGFR in intact FM55 melanoma cells; type: cell-based; conditions: 0.05 μM, 1 h
Protocol: as §3, §4

[4] = system: RD-ES Ewing's sarcoma cell line; assay: Cell viability (XTT), RD-ES; type: cell-based; conditions: Homo sapiens, 48 h, read-out: EC50 for cell viability
Protocol: as §1, §2

[5] = target: IGF-1R (Homo sapiens, UniProt P08069); assay: IGF-1R phosphorylation in HaCaT cells (psoriasis model); type: cell-based; design: expressed in transfected cells; host or cells: P6 cell line (murine fibroblasts overexpressing human IGF-1R); receptor captured on plates with an antibody to the beta subunit; conditions: 0.05 μM, 1 h, control 100
Protocol: (§5) Keratinocytes (HaCaT cells) were provided by and tested in collaboration with Professor Mona Bäckdahl, Department of Dermatology, Karolinska Hospital, Stockholm, Sweden. The HaCaT cell line is a spontaneously immortalized human keratinocyte cell line (Boukamp P, et al., J Cell Biol 106: 761-771, 1988), which is frequently used as an experimental model for psoriasis (Wraight, C. J., et al. Nat Biotechnol 18: 521-526, 2000.) HaCaT cells were cultured in Dulbecco's Modified Eagle's Medium containing 10% fetal bovine serum, glutamine, benzylpenicillin and streptomycin.
Cells were cultured to subconfluency in 6-cm plates, and then fresh medium containing 10% FBS and the desired compounds were added for 1 h. The cells were then lyzed and subjected to immunoprecipitation using specific antibodies. […] After detection the films were scanned for quantification.
HaCaT cells, which are immortalized human keratinocytes and represent a model cell line for psoriasis, were seeded in 6-cm dishes or in 96-well plates (medium volume in a well was 100 μl), at a concentration of 7,000 cells/cm^2 in Dulbecco's Modified Eagle's Medium containing 10% fetal bovine serum. […] After 1 h incubation the cells in the 6-cm dishes were harvested for assay and quantification of IGF-1R phosphorylation as described in Experiment 1. […]

[6] = target: T2, epidermal growth factor receptor (EGFR) (Homo sapiens, UniProt P00533); assay: Tyrosine phosphorylation of EGFR in intact FM55 melanoma cells; type: cell-based; conditions: 0.05 μM, 1 h
T2 construct: endogenous in cells; host or cells: FM55 melanoma cells
Protocol: as §3, §4

[7] = system: HaCaT cells; assay: Cell viability of HaCaT cells (psoriasis model); type: cell-based; conditions: Homo sapiens, 48 h, read-out: Cell viability
Protocol: as §5
as §1, with “All standards and experiments were performed in triplicates.” left out

[8] = system: P6 cells (fibroblasts with overexpressed IGF-1R); assay: Cell viability (XTT), P6; type: cell-based, murine; conditions: Mus musculus, Fibroblast, 48 h, read-out: EC50 for cell viability
Protocol: as §1, §2

T1 sequence (P06213 28-1382): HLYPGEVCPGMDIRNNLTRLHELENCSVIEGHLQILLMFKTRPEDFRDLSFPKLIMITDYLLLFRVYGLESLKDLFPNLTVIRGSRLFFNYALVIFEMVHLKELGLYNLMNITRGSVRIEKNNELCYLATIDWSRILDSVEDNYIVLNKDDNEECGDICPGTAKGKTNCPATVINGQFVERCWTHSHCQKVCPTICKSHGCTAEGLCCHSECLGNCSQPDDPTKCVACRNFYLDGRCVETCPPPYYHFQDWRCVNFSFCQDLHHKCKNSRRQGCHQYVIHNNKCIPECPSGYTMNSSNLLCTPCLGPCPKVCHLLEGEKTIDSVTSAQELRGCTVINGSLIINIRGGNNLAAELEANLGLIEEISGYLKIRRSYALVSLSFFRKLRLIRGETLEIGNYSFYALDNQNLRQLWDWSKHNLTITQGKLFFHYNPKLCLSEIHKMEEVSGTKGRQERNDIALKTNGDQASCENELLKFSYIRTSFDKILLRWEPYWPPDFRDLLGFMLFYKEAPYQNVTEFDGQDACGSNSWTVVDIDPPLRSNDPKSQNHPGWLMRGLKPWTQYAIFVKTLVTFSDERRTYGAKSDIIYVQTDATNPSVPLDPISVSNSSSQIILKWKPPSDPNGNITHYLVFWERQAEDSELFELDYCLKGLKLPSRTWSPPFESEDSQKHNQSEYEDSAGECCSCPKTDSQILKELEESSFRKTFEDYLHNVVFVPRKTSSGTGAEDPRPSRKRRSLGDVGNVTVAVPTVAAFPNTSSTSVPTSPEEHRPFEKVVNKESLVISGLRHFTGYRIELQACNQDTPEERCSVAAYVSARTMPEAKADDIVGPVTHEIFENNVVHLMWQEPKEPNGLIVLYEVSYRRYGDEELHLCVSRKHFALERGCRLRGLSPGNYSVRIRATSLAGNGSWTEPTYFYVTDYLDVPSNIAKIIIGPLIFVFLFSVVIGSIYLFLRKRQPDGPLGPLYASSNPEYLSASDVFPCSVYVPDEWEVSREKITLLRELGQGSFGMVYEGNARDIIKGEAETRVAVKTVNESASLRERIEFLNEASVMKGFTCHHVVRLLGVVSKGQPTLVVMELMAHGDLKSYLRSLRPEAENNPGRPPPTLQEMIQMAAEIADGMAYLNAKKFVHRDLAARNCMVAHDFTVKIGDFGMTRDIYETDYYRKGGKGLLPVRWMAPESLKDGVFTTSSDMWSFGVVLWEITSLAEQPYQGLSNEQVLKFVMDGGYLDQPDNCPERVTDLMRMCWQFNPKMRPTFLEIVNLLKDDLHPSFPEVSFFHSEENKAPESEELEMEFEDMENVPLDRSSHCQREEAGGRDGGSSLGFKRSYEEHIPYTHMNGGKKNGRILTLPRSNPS
T2 sequence (P00533 25-1210): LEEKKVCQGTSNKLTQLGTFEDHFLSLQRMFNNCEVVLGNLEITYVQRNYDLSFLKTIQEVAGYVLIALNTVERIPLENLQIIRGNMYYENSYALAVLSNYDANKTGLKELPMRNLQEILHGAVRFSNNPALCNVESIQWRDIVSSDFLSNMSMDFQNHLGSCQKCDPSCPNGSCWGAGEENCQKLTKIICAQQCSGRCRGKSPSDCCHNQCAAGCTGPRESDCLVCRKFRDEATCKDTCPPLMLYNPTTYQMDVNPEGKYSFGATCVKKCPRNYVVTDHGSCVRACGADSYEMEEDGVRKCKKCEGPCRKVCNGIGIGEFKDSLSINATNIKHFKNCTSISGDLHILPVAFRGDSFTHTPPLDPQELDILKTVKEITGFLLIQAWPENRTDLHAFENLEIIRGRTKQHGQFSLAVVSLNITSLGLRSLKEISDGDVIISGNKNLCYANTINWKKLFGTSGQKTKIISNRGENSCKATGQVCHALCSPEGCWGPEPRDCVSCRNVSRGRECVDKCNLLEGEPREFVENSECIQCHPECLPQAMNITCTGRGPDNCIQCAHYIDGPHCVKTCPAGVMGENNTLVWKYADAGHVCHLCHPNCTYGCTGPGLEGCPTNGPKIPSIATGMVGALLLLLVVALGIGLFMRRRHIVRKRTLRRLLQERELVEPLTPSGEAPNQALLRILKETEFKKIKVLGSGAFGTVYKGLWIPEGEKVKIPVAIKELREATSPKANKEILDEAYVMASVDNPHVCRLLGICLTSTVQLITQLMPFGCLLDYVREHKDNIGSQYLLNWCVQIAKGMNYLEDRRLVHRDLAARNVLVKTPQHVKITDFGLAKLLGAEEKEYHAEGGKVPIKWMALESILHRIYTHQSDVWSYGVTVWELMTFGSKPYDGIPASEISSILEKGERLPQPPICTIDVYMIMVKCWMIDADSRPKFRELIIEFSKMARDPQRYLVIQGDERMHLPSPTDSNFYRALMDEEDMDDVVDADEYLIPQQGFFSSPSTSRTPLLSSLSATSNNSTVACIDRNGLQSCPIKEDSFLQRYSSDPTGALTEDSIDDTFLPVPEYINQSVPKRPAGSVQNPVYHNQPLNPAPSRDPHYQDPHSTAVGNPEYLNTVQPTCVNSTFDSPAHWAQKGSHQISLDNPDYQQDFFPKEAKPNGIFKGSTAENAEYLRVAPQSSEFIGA
IGF-1R, sequence (P08069 31-1367): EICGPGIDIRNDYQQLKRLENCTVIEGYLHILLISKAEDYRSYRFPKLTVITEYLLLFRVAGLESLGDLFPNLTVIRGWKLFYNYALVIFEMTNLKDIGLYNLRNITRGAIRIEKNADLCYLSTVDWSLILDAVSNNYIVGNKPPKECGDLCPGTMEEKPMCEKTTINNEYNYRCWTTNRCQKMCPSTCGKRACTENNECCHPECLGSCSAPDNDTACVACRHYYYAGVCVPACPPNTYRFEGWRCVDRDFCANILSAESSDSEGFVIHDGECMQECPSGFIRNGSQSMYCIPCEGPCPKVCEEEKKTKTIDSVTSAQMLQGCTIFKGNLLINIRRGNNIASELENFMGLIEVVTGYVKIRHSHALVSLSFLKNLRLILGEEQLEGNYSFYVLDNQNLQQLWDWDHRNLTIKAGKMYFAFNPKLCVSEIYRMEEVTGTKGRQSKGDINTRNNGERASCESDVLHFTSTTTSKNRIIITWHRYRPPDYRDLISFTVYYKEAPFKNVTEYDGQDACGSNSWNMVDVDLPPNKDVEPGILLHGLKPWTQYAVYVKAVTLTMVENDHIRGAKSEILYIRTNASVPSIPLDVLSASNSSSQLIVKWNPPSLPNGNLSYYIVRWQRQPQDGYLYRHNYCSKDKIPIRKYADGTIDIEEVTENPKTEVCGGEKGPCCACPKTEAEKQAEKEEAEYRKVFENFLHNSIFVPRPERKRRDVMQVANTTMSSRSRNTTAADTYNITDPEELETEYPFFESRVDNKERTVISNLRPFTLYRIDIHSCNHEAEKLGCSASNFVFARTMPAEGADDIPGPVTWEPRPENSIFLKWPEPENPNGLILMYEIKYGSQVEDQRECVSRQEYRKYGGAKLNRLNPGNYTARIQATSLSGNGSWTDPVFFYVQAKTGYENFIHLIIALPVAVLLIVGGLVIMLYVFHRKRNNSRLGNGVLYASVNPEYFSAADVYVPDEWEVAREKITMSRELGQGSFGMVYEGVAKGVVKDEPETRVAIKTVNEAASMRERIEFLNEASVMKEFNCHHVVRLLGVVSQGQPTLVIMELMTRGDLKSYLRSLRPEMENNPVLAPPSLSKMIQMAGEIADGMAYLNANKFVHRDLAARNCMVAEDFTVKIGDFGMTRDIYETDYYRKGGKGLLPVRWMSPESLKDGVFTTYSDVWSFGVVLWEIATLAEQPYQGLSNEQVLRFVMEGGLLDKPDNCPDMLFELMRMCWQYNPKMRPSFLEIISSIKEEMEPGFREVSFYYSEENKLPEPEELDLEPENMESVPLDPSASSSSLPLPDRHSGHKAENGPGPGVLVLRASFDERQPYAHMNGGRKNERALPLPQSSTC

**Q.** For `COc1cc([C@@H]2c3cc4c(cc3[C@H](O)[C@H]3COC(=O)[C@@H]23)OCO4)cc(OC)c1OC` [Picropodophyllin, picropodophyllin], which EC50 ([1]; PC-3, 48 h) is on record?
**A.** Its EC50 is 90 nM.

**Q.** And the “Level of phosphorylation in intact cells, substrate IR” value [2]?
**A.** The value was 100 % OD.

**Q.** And the “Level of phosphorylation in intact cells, substrate PDGFR” value [3]?
**A.** Its value is 104 % OD.

**Q.** And the EC50 [4]?
**A.** Its EC50 is 100 nM.

**Q.** What about the IGF-1R phosphorylation [5] of the same compound?
**A.** Its IGF-1R phosphorylation is 35.

**Q.** What about the “Level of phosphorylation in intact cells, substrate EGFR” value [6] of the same compound?
**A.** The value was 106 % OD.

**Q.** And the viability at 0.05 µM ([7]; HaCaT cells, 0.05 μM, control 100)?
**A.** Its viability at 0.05 µM is 35%.

**Q.** And the EC50 ([8]; P6 (fibroblasts with overexpressed IGF-1R))?
**A.** Its EC50 is 20 nM.

**Q.** `COc1cc([C@@H]2c3cc4c(cc3[C@H](O)[C@H]3COC(=O)[C@H]23)OCO4)cc(OC)c1OC` [Podophyllotoxin, podophyllotoxin] was tested. Which EC50 ([1]; 48 h) did it give?
**A.** Its EC50 is 60 nM.

**Q.** And the “Level of phosphorylation in intact cells, substrate IR” value [2]?
**A.** Its value is 101 % OD.

**Q.** And the “Level of phosphorylation in intact cells, substrate PDGFR” value [3]?
**A.** The value was 100 % OD.

**Q.** And the EC50 [4]?
**A.** The EC50 was 100 nM.

**Q.** And the IGF-1R phosphorylation [5]?
**A.** Its IGF-1R phosphorylation is 45.

**Q.** What about the “Level of phosphorylation in intact cells, substrate EGFR” value [6] of the same compound?
**A.** Its value is 107 % OD.

**Q.** What about the viability at 0.05 µM ([7]; HaCaT) of the same compound?
**A.** Its viability at 0.05 µM is 30%.

**Q.** What about the EC50 [8] of the same compound?
**A.** The EC50 was 30 nM.
